Results from patent publication US12404261B2, “Compounds and compositions for treating conditions associated with cGAS” (Novartis AG, priority 2020, dated 2025).

Target: human truncated cGAS enzyme (147-522 human cGAS) (Homo sapiens (Human), UniProt Q8N884)
Test: Quantification of cGAS protein inhibition (cGAMP formation measured by LC-MS/MS)
Assay type: biochemical
Method: A reagent buffer was prepared in filtered and autoclaved water according to the following: • 50 mM Tris-buffer pH 7.5 (1 M Tris-buffer pH 7.5, Invitrogen, Cat. No. 15567-027); • 50 mM NaCl (5 M NaCl, Sodium Chloride Solution, Sigma, 59222C-); • 5 mM MgCl2 (1 M MgCl2, Sigma, M1028); • 0.1 mM ZnCl2 (Zinc Chloride [7646-85-7], powder, Cell Culture Tested, Sigma, Z-0152); and • 0.001% Tween 20 (TWEEN 20, Sigma Aldrich, P1379-).
A buffer for the cGAS enzyme was prepared in filtered and autoclaved water according to the following: • 50 mM Tris-buffer pH 7.5; • 5 mM MgCl2; and • 0.001% Tween 20.
Compounds were dispensed to a […]. The human truncated cGAS enzyme (4.2 mg/mL 147-522 human cGAS, MW 43,909 g/mol) was stored in 50 mM Tris, 500 mM NaCl, 5% (v/v) glycerol at pH 8 and diluted in the cGAS buffer enzyme shortly before use. The enzyme solution was transferred into the reagent buffer to give a final concentration of 30 nM. The reaction was started by mixing the enzyme with ISD (a 45 bp double stranded DNA, MW 27,670 g/mol, 5 mM), GTP and ATP to a final concentration of 5 μM, 0.5 mM and 0.5 mM respectively in a final volume of 10 μl. The reaction plates were then centrifuged at 1000 rpm for 1 minute and incubated at room temperature for 1 h. After 1 h of incubation, [^5Ns]-2′3′-cGAMP to a final concentration of 200 nM and 30 μL of 100% acetonitrile/0.175% of TFA were added to the reaction mixture. The plates were centrifuged at 1000 rpm for 1 minute before being sealed for 3 seconds at 170° C. using a ThermoScientific sealer (ALPS™ 50V) and an aluminum sealing cover (Pierce Seal, 4titude, Product Code: 4TI-0531).
The concentration of cGAMP was measured on a LC-MS/MS system consisting of a THERMO Dionex Ultimate LC system with a high pressure pump, an autosampler, a column heating compartment (Reinach, Switzerland) and a SCIEX Triple Quad 5500 (Framingham, MA, USA) mass spectrometer for detection. The sample plates were centrifuged for 10 minutes at 2000 rpm. Up to three plates were placed in the autosampler for injection. An aliquot of 10 μL of each sample was injected on an XBridge BEH Amide 3.5 μm, 2.1×50 mm column (P/N 186004859) with an XBridge BEH Amide 5 μm 2.1×5 mm VanGuard Cartridge (P/N 186007760) pre-column (both WATERS, MA, USA) held at 40° C. An isocratic flow of 1.0 mL/min solvent (60% ACN, 8 mM ammonium acetate, 5 mM ammonium hydroxide, 0.04% acetic acid) was applied and sprayed into the ion source of the mass spectrometers. The MS parameters were optimized based on the properties of the compounds to be detected and run in positive multi-reaction mode (MRM) based on the mass transitions. LC and MS parameters were also optimized to allow for a sample-to-sample measuring time of approximately 75 sec and a run time of 8 hours per 384-well plate. All data were analyzed with Excel; and the dose response curves were generated using the auto fitting function of XLfit. The IC50 was determined by plotting the cGAMP concentration ratio (cGAMP divided by the internal standard [^15Ns]-2′3′-cGAMP) versus the concentration of compound.

[1] = reported for the potential mixture in solution of co-existing tautomers and/or racemates
[2] = reported for the potential mixture of co-existing tautomers and/or racemates

Chain of human truncated cGAS enzyme (147-522 human cGAS) (Q8N884 147-522): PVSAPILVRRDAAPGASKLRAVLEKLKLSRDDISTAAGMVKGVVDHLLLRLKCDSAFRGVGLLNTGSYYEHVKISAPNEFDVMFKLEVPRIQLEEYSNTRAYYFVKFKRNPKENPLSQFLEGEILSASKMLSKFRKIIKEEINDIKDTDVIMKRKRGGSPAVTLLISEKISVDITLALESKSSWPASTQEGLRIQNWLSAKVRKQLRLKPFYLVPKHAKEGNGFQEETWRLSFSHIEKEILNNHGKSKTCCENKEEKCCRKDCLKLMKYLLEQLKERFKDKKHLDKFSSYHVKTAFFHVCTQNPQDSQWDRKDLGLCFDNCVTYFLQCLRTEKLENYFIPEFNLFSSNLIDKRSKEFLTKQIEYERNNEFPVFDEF

SMILES	IC50 [1]	IC50 [2]
COCC(c1nnc(-c2c(-n3ccnc3)c3cc(OC)c(Cl)c(F)c3n2C)[nH]1)N(C)C (racemic) [Example 124, 1-(5-(6-chloro-7-fluoro-3-(1H-imidazol-1-yl)-5-methoxy-1-methyl-1H-indol-2-yl)-4H-1,2,4-triazol-3-yl)-2-methoxy-N,N-dimethylethan-1-amine]	122 nM	
CNC(COC)c1nnc(-c2c(-n3ccnc3)c3cc(OC)c(Cl)c(F)c3n2C)[nH]1 (racemic) [Example 125, 1-(5-(6-chloro-7-fluoro-3-(1H-imidazol-1-yl)-5-methoxy-1-methyl-1H-indol-2-yl)-4H-1,2,4-triazol-3-yl)-2-methoxy-N-methylethan-1-amine]	74 nM	
COc1cc2c(-c3cn[nH]c3)c(-c3nnc(C(F)(F)F)[nH]3)n(C)c2c(F)c1Cl [Example 1, 6-Chloro-7-fluoro-5-methoxy-1-methyl-3-(1H-pyrazol-4-yl)-2-(5-(trifluoromethyl)-4H-1,2,4-triazol-3-yl)-1H-indole]		74 nM
Clc1ccc2c(-c3cn[nH]c3)c(-c3nnc(Br)[nH]3)[nH]c2c1Cl [Example 5, 2-(5-bromo-4H-1,2,4-triazol-3-yl)-6,7-dichloro-3-(1H-pyrazol-4-yl)-1H-indole]		93 nM
N#Cc1cc2c(-c3cn[nH]c3)c(-c3nnc(C(F)(F)F)[nH]3)[nH]c2c(F)c1Cl [Example 6, 6-chloro-7-fluoro-3-(1H-pyrazol-4-yl)-2-(5-(trifluoromethyl)-4H-1,2,4-triazol-3-yl)-1H-indole-5-carbonitrile]		152 nM
Cn1c(-c2nnc(C(F)(F)F)[nH]2)c(-c2cn[nH]c2)c2cc(C#N)c(Cl)c(F)c21 [Example 8, 6-chloro-7-fluoro-1-methyl-3-(1H-pyrazol-4-yl)-2-(5-(trifluoromethyl)-4H-1,2,4-triazol-3-yl)-1H-indole-5-carbonitrile]		134 nM
COCC(F)c1nnc(-c2[nH]c3c(Cl)c(Cl)ccc3c2-c2cn[nH]c2)[nH]1 (stereo not drawn) [Example 10, 6,7-dichloro-2-(5-(1-fluoro-2-methoxyethyl)-4H-1,2,4-triazol-3-yl)-3-(1H-pyrazol-4-yl)-1H-indole]		74 nM
FC(F)(F)Cc1nnc(-c2[nH]c3c(Cl)c(Cl)ccc3c2-c2cn[nH]c2)[nH]1 [Example 13, 6,7-dichloro-3-(1H-pyrazol-4-yl)-2-(5-(2,2,2-trifluoroethyl)-4H-1,2,4-triazol-3-yl)-1H-indole]		178 nM
Fc1ccc2c(-c3cn[nH]c3)c(-c3nnc(C(F)(F)F)[nH]3)[nH]c2c1F [Example 14, 6,7-difluoro-3-(1H-pyrazol-4-yl)-2-(5-(trifluoromethyl)-4H-1,2,4-triazol-3-yl)-1H-indole]		196 nM
OCCc1nnc(-c2[nH]c3c(Cl)c(Cl)ccc3c2-c2cn[nH]c2)[nH]1 [Example 15, 2-(5-(6,7-dichloro-3-(1H-pyrazol-4-yl)-1H-indol-2-yl)-4H-1,2,4-triazol-3-yl)ethan-1-ol]		188 nM
COc1c(Cl)ccc2c(-c3cn[nH]c3)c(-c3nnc(C(F)(F)F)[nH]3)[nH]c12 [Example 17, 6-chloro-7-methoxy-3-(1H-pyrazol-4-yl)-2-(5-(trifluoromethyl)-4H-1,2,4-triazol-3-yl)-1H-indole]		1490 nM
FC(F)(F)c1nnc(-c2[nH]c3cc(Cl)c(Cl)cc3c2-c2cn[nH]c2)[nH]1 [Example 18, 5,6-dichloro-3-(1H-pyrazol-4-yl)-2-(5-(trifluoromethyl)-4H-1,2,4-triazol-3-yl)-1H-indole]		165 nM
N#Cc1c(Cl)ccc2c(-c3cn[nH]c3)c(-c3nnc(C(F)(F)F)[nH]3)[nH]c12 [Example 19, 6-chloro-3-(1H-pyrazol-4-yl)-2-(5-(trifluoromethyl)-4H-1,2,4-triazol-3-yl)-1H-indole-7-carbonitrile]		150 nM
COc1cc2c(-c3cn[nH]c3)c(-c3nnc(C(F)(F)F)[nH]3)n(C)c2cc1Cl [Example 20, 6-chloro-5-methoxy-1-methyl-3-(1H-pyrazol-4-yl)-2-(5-(trifluoromethyl)-4H-1,2,4-triazol-3-yl)-1H-indole]		116 nM
Cn1c(-c2nnc(C(F)(F)F)[nH]2)c(-c2cn[nH]c2)c2cc(Cl)c(Cl)cc21 [Example 23, 5,6-dichloro-1-methyl-3-(1H-pyrazol-4-yl)-2-(5-(trifluoromethyl)-4H-1,2,4-triazol-3-yl)-1H-indole]		112 nM
COc1cc2c(-c3cn[nH]c3)c(-c3nnc(C(F)(F)F)[nH]3)n(CCO)c2cc1Cl [Example 25, 2-(6-chloro-5-methoxy-3-(1H-pyrazol-4-yl)-2-(5-(trifluoromethyl)-4H-1,2,4-triazol-3-yl)-1H-indol-1-yl)ethan-1-ol]		1430 nM
COCCn1c(-c2nnc(C(F)(F)F)[nH]2)c(-c2cn[nH]c2)c2cc(OC)c(Cl)cc21 [Example 26, 6-chloro-5-methoxy-1-(2-methoxyethyl)-3-(1H-pyrazol-4-yl)-2-(5-(trifluoromethyl)-4H-1,2,4-triazol-3-yl)-1H-indole]		1810 nM

Further compounds by falling IC50 [2], results first:

IC50 [1]	IC50 [2]	SMILES
	69 nM	COc1cc2c(-c3cn[nH]c3)c(-c3nnc(C(F)(F)F)[nH]3)[nH]c2cc1Cl [Example 24, 6-chloro-5-methoxy-3-(1H-pyrazol-4-yl)-2-(5-(trifluoromethyl)-4H-1,2,4-triazol-3-yl)-1H-indole]
	48 nM	Cn1c(-c2nnc(C(F)(F)F)[nH]2)c(-c2cn[nH]c2)c2ccc(Cl)c(Cl)c21 [Example 12, 6,7-dichloro-1-methyl-3-(1H-pyrazol-4-yl)-2-(5-(trifluoromethyl)-4H-1,2,4-triazol-3-yl)-1H-indole]
	46 nM	COc1cc2c(-c3cn[nH]c3)c(-c3nnc(C(=O)N(C)C)[nH]3)n(C)c2c(F)c1Cl [Example 2, 5-(6-chloro-7-fluoro-5-methoxy-1-methyl-3-(1H-pyrazol-4-yl)-1H-indol-2-yl)-N,N-dimethyl-4H-1,2,4-triazole-3-carboxamide]
	44 nM	Fc1c(Cl)ccc2c(-c3cn[nH]c3)c(-c3nnc(C(F)(F)F)[nH]3)[nH]c12 [Example 16, 6-chloro-7-fluoro-3-(1H-pyrazol-4-yl)-2-(5-(trifluoromethyl)-4H-1,2,4-triazol-3-yl)-1H-indole]
	33 nM	COc1cc2c(-c3cn[nH]c3)c(-c3nnc(C(F)(F)F)[nH]3)[nH]c2c(F)c1Cl [Example 4, 6-chloro-7-fluoro-5-methoxy-3-(1H-pyrazol-4-yl)-2-(5-(trifluoromethyl)-4H-1,2,4-triazol-3-yl)-1H-indole]
	30 nM	COc1cc2c(-c3cn[nH]c3)c(-c3nnc(F)[nH]3)[nH]c2c(F)c1Cl [Example 3, 6-chloro-7-fluoro-2-(5-fluoro-4H-1,2,4-triazol-3-yl)-5-methoxy-3-(1H-pyrazol-4-yl)-1H-indole]
	30 nM	COCC(=O)c1nnc(-c2[nH]c3c(Cl)c(Cl)ccc3c2-c2cn[nH]c2)[nH]1 [Example 7, 1-(5-(6,7-dichloro-3-(1H-pyrazol-4-yl)-1H-indol-2-yl)-4H-1,2,4-triazol-3-yl)-2-methoxyethan-1-one]
	30 nM	COCC(F)(F)c1nnc(-c2[nH]c3c(Cl)c(Cl)ccc3c2-c2cn[nH]c2)[nH]1 [Example 9, 6,7-dichloro-2-(5-(1,1-difluoro-2-methoxyethyl)-4H-1,2,4-triazol-3-yl)-3-(1H-pyrazol-4-yl)-1H-indole]
	30 nM	CCOC(=O)c1nnc(-c2[nH]c3c(Cl)c(Cl)ccc3c2-c2cn[nH]c2)[nH]1 [Example 21, ethyl 5-(6,7-dichloro-3-(1H-pyrazol-4-yl)-1H-indol-2-yl)-4H-1,2,4-triazole-3-carboxylate]
	30 nM	NC(=O)c1nnc(-c2[nH]c3c(Cl)c(Cl)ccc3c2-c2cn[nH]c2)[nH]1 [Example 22, 5-(6,7-dichloro-3-(1H-pyrazol-4-yl)-1H-indol-2-yl)-4H-1,2,4-triazole-3-carboxamide]
